Laboratory results: patent US20130295150A1, “ELECTRICITY-GENERATING PARTICULATES AND THE USE THEREOF” (Johnson & Johnson Consumer Companies, Inc., priority 2007, published 2013)

Tests used:
Assay type in all cases: cell-based
C. albicans [1] = experiment: Agar disc microwell assay, log reduction by plate count; conditions: about 6 log CFU in saline, 37° C., 200 rpm
Procedure: (§1) Agar discs containing copper-zinc galvanic particulates from Example 1(a) or zinc acetate at a concentration of 0.1%, 0.5%, or 1% were exposed to about 6 log CFU of MRSA or C. albicans in saline in microwell plate and incubated at 37° C. and 200 rpm for 24 hrs. Plate count was performed to enumerate the viable microorganisms after the incubation. Log reduction was defined as the log difference of the inoculum before and after the incubation with the test articles (e.g., a log reduction of 6 for the inoculum of 6 log means all the inoculum were killed, and a log reduction of 3 for the inoculum of 6 log means […] of the inoculum were killed).
(§2) Agar discs containing 0.1% copper coated zinc galvanic particulates from Example 1(a) or zinc acetate at 1% or copper acetate at 0.1% were exposed to about 6 log CFU of MRSA or C. albicans in saline in microwell plates, and incubated at 37° C., 200 rpm for 24 hr.
(§3) Plate count was performed to enumerate the viable microorganisms after the incubation. Log reduction was defined as the log difference of the inoculum before and after the incubation with the test articles.

MRSA [2] = experiment: as above; conditions: about 6 log CFU in saline, 37° C., 200 rpm
Procedure: as §1, §2, §3

C. albicans [3] = experiment: Zone of inhibition testing versus copper acetate and zinc acetate; conditions: about 6 log CFU, 37° C., 24 hr
Procedure: (§4) Zone of inhibition testing was performed on agar discs containing copper-zinc galvanic particulates from Example 1(a) at 0.5%, Zn acetate at 0.5%, and Cu acetate at 0.1%. The discs were placed on TSA agar surface, inoculated with about 6 log CFU of MRSA or C. albicans, and incubated at 37° C. for 24 hr.

MRSA [4] = experiment: as above; conditions: about 6 log CFU, 37° C., 24 hr
Procedure: as §4

C. albicans [5] = experiment: Sustained efficacy, zone of inhibition on day 1 and after transfer to new plate on day 2; conditions: 1% in agar disc
Procedure: (§5) Agars discs containing either galvanic particulates as described in Example 1(a) or zinc acetate at 1% were placed on TSA agar surface inoculated with about 6 log CFU of MRSA or C. albicans and incubated at 37° C. for 24 hr (day-1).

MRSA [6] = experiment: as above; conditions: 1% in agar disc
Procedure: as §5

[7] = test system: Human T-cells stimulated with PHA; experiment: Human T-cell cytokine release stimulated with PHA; conditions: 100 ug/ml, 10 μg/mL PHA, 48-hour incubation; for Cytokine Release Percent (%) Reduction: IL-2
Procedure: Human T-cells were collected from a healthy adult […] via leukopheresis. The T-cells were isolated from peripheral blood via Ficol gradient, and the cells were adjusted to a density of 1×10^6 cells/mL in serum free lymphocyte growth medium (ExVivo-15, Biowhittaker, Walkersville, Md.). Human T-cells were stimulated with 10 μg/mL PHA in the presence or absence of test compounds following published method (Hamamoto Y., et al. Exp Dermatol 2:231-235, 1993). Following a 48-hour incubation at 37° C. with 5% CO2, supernatant was removed and evaluated for cytokine content using commercially available multiplex cytokine detection kit.

Human keratinocyte cells = experiment: Stimulation of hydrogen peroxide production, CM-H2DCFDA fluorescence; conditions: 0.03% positive control
Procedure: Human keratinocyte cells were seeded in assay plates at identical densities and incubated for 48 hours at 37° C. with 5% CO2. […] Cells were treated with galvanic particulates or zinc or copper metal powders alone over increasing amounts of time. Treatment of control wells with 0.03% hydrogen peroxide served as a positive control. Hydrogen peroxide production was quantitated using a fluorescent plate reader set at wavelengths 485 excitation/530 emission. The results are depicted in Tables 17 and 18.

[8] = Table 2, test material 0.10% in agar disc, 24 hrs
[9] = Table 2, test material 0.50% in agar disc, 24 hrs
[10] = Table 2, test material 1.00% in agar disc, 24 hrs
[11] = Table 4, 1% in agar disc, 24 hr
[12] = same disc moved to newly inoculated TSA plate, 24 hr (day-2)
[13] = Table 4, 0.1% in agar disc, 24 hr

For `CC(=O)[O-].CC(=O)[O-].[Zn+2]` [Zinc Acetate, zinc acetate], the “LOG REDUCTION C. albicans” value (C. albicans [1]; [8]) was 2.2, the “LOG REDUCTION C. albicans” value (C. albicans [1]; [9]) was 2.9 and the “LOG REDUCTION C. albicans” value (C. albicans [1]; [10]) was 4.7. The “LOG REDUCTION C. albicans” value (C. albicans [1]; [11]) was 4.7, the “LOG REDUCTION MRSA” value (MRSA [2]; [8]) was 1.7 and the “LOG REDUCTION MRSA” value (MRSA [2]; [9]) was 3.2. The “LOG REDUCTION MRSA” value (MRSA [2]; [10]) was 5.1, the “LOG REDUCTION MRSA” value (MRSA [2]; [11]) was 5.1 and the zone of inhibition (C. albicans [3]; 0.5% in agar disc on TSA agar) was “smaller zone of inhibition, approximately one half the radius”. For the same compound, the zone of inhibition (MRSA [4]; 0.5% in agar disc on TSA agar) was “smaller zone of inhibition, approximately one half the radius”, the “zone of inhibition, day 1” value (C. albicans [5]; 37° C., 24 hr (day-1)) was “produce a zone of inhibition” and the “zone of inhibition, day 2” value (C. albicans [5]; [12]) was “did not show any inhibition”. The “zone of inhibition, day 1” value (MRSA [6]; 37° C., 24 hr (day-1)) was “produce a zone of inhibition” and the “zone of inhibition, day 2” value (MRSA [6]; [12]) was “did not show any inhibition”.

With `C[C@]12CCC(=O)C=C1CC[C@@H]1[C@@H]2[C@@H](O)C[C@@]2(C)[C@H]1CC[C@]2(O)C(=O)CO` [Hydrocortisone] the “Cytokine Release IL-2” value [7] was 7.69 ± 5.64 pmol/mL and the “Cytokine Release Percent (%) Reduction” value [7] was 98.6%.

For `OO` [Example H2O2, hydrogen peroxide], the “Hydrogen peroxide production (fluorescence), 30 Minutes” value (Human keratinocyte cells) was 416.6 ± 61.3, the “Hydrogen peroxide production (fluorescence), 60 Minutes” value (Human keratinocyte cells) was 591.4 ± 82.7 and the “Hydrogen peroxide production (fluorescence), 200 Minutes” value (Human keratinocyte cells) was 1117.5 ± 153.8. The “Hydrogen peroxide production (fluorescence), 240 Minutes” value (Human keratinocyte cells) was 1214.8 ± 149.7 and the “Hydrogen peroxide production (fluorescence), Baseline” value (Human keratinocyte cells) was 98.1 ± 4.4.

In the case of `[Cl-].[Cl-].[Zn+2]` [Zinc Chloride], the “Cytokine Release IL-2” value [7] is reported as 566.3 ± 20.6 pmol/mL and the “Cytokine Release Percent (%) Reduction” value [7] is reported as −0.6%.

For copper acetate, the “LOG REDUCTION C. albicans” value (C. albicans [1]; [13]) was 0.3, the “LOG REDUCTION MRSA” value (MRSA [2]; [13]) was 0.2 and the zone of inhibition (C. albicans [3]; 0.1% in agar disc on TSA agar) was “did not show any visible zone of inhibition”. For the same compound, the zone of inhibition (MRSA [4]; 0.1% in agar disc on TSA agar) was “did not show any visible zone of inhibition”, the “Cytokine Release IL-2” value [7] was 312.9 ± 96.8 pmol/mL and the “Cytokine Release Percent (%) Reduction” value [7] was 44.4%.
